Experiments:
MCF7 [1] = test: Anticancer activity against human MCF7 cells assessed as cell growth at 0.1 uM incubated for 48 hrs by SRB assay; assay type: functional; details: read-out: Activity
NCI-H226 [2] = test: Anticancer activity against human NCI-H226 cells assessed as cell growth at 1 uM incubated for 48 hrs by SRB assay; assay type: functional; details: read-out: Activity
Cytochrome P450 1A1 = biological target: T1, Cytochrome P450 1A1 (Homo sapiens, UniProt P04798); test: Inhibition of recombinant CYP1A1 (unknown origin) assessed as decrease in EROD activity using 7-ethoxyresorufin as substrate incubated for 15 mins by resorufin dye based spectrofluorimetry; assay type: ADME
T1 sequence (P04798 whole entry): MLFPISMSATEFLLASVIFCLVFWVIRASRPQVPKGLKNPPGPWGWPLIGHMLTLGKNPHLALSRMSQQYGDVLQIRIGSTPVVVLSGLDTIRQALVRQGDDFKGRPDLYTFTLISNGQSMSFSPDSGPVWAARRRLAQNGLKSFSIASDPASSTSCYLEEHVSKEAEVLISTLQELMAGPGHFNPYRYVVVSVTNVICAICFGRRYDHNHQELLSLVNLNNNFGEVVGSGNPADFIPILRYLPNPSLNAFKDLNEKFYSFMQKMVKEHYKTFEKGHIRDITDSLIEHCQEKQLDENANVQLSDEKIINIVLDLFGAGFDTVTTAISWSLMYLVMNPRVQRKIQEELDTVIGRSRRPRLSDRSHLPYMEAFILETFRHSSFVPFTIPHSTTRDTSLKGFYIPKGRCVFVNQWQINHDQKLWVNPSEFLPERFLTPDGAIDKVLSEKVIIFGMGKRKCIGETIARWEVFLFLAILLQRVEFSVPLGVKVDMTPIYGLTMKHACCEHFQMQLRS

MCF7 [3] = test: Anticancer activity against human MCF7 cells assessed as inhibition of cell growth incubated for 48 hrs by SRB assay; assay type: functional; details: for CC50: read-out: LC50 (the source's name)
NCI-H226 [4] = test: Anticancer activity against human NCI-H226 cells assessed as cell growth at 0.1 uM incubated for 48 hrs by SRB assay; assay type: functional; details: read-out: Activity
MCF7 [5] = test: Anticancer activity against human MCF7 cells assessed as cell growth at 1 uM incubated for 48 hrs by SRB assay; assay type: functional; details: read-out: Activity
CYP1A1 [6] = biological target: T2, CYP1A1 (Homo sapiens, UniProt P04798); test: Inhibition of recombinant CYP1A1 (unknown origin) assessed as residual enzyme activity using 7-ethoxyresorufin as substrate at 100 uM incubated for 15 mins by resorufin dye based spectrofluorimetry (reference value: 100%); assay type: ADME; details: recombinant CYP1A1, probe 7-ethoxyresorufin, read-out: Activity
T2 sequence (P04798 whole entry): T1 sequence (P04798 whole entry)

MDA-MB-435 [7] = test: Anticancer activity against human MDA-MB-435 cells assessed as cell growth at 0.1 uM incubated for 48 hrs by SRB assay; assay type: functional; details: read-out: Activity
MDA-MB-468 [8] = test: Anticancer activity against human MDA-MB-468 cells assessed as inhibition of cell growth incubated for 48 hrs by SRB assay; assay type: functional; details: for CC50: read-out: LC50 (the source's name)
MDA-MB-435 [9] = test: Anticancer activity against human MDA-MB-435 cells assessed as inhibition of cell growth incubated for 48 hrs by SRB assay; assay type: functional
NCI-H226 [10] = test: Anticancer activity against human NCI-H226 cells assessed as inhibition of cell growth incubated for 48 hrs by SRB assay; assay type: functional
MCF7 [11] = test: Anticancer activity against human MCF7 cells assessed as cell growth at 10 uM incubated for 48 hrs by SRB assay; assay type: functional; details: read-out: Activity
CYP1A1 [12] = biological target: T2, CYP1A1; test: Inhibition of recombinant CYP1A1 (unknown origin) assessed as residual enzyme activity using 7-ethoxyresorufin as substrate at 1 uM incubated for 15 mins by resorufin dye based spectrofluorimetry (reference value: 100%); assay type: ADME; details: recombinant CYP1A1, probe 7-ethoxyresorufin, read-out: Activity
NCI-H226 [13] = test: Anticancer activity against human NCI-H226 cells assessed as cell growth at 10 uM incubated for 48 hrs by SRB assay; assay type: functional; details: read-out: Activity
MCF7 [14] = test: Anticancer activity against human MCF7 cells assessed as cell growth at 100 uM incubated for 48 hrs by SRB assay; assay type: functional; details: read-out: Activity
CYP1A1 [15] = biological target: T2, CYP1A1; test: Inhibition of recombinant CYP1A1 (unknown origin) assessed as residual enzyme activity using 7-ethoxyresorufin as substrate at 0.01 uM incubated for 15 mins by resorufin dye based spectrofluorimetry (reference value: 100%); assay type: ADME; details: recombinant CYP1A1, probe 7-ethoxyresorufin, read-out: Activity
NCI-H226 [16] = test: Anticancer activity against human NCI-H226 cells assessed as cell growth at 100 uM incubated for 48 hrs by SRB assay; assay type: functional; details: read-out: Activity
CYP1A1 [17] = biological target: T2, CYP1A1; test: Inhibition of recombinant CYP1A1 (unknown origin) assessed as residual enzyme activity using 7-ethoxyresorufin as substrate at 0.1 uM incubated for 15 mins by resorufin dye based spectrofluorimetry (reference value: 100%); assay type: ADME; details: recombinant CYP1A1, probe 7-ethoxyresorufin, read-out: Activity
MDA-MB-468 [18] = test: Anticancer activity against human MDA-MB-468 cells assessed as cell growth at 10 uM incubated for 48 hrs by SRB assay; assay type: functional; details: read-out: Activity
MDA-MB-435 [19] = test: Anticancer activity against human MDA-MB-435 cells assessed as cell growth at 1 uM incubated for 48 hrs by SRB assay; assay type: functional; details: read-out: Activity
CYP1A1 [20] = biological target: T2, CYP1A1; test: Inhibition of recombinant CYP1A1 (unknown origin) assessed as residual enzyme activity using 7-ethoxyresorufin as substrate at 10 uM incubated for 15 mins by resorufin dye based spectrofluorimetry (reference value: 100%); assay type: ADME; details: recombinant CYP1A1, probe 7-ethoxyresorufin, read-out: Activity
MDA-MB-468 [21] = test: Anticancer activity against human MDA-MB-468 cells assessed as cell growth at 100 uM incubated for 48 hrs by SRB assay; assay type: functional; details: read-out: Activity
MDA-MB-435 [22] = test: Anticancer activity against human MDA-MB-435 cells assessed as cell growth at 10 uM incubated for 48 hrs by SRB assay; assay type: functional; details: read-out: Activity
MDA-MB-468 [23] = test: Anticancer activity against human MDA-MB-468 cells assessed as cell growth at 0.1 uM incubated for 48 hrs by SRB assay; assay type: functional; details: read-out: Activity
CYP1A1 [24] = biological target: T2, CYP1A1; test: Inhibition of recombinant CYP1A1 (unknown origin) assessed as residual enzyme activity using 7-ethoxyresorufin as substrate at 50 uM incubated for 15 mins by resorufin dye based spectrofluorimetry (reference value: 100%); assay type: ADME; details: recombinant CYP1A1, probe 7-ethoxyresorufin, read-out: Activity
MDA-MB-468 [25] = test: Anticancer activity against human MDA-MB-468 cells assessed as cell growth at 1 uM incubated for 48 hrs by SRB assay; assay type: functional; details: read-out: Activity
MDA-MB-435 [26] = test: Anticancer activity against human MDA-MB-435 cells assessed as cell growth at 100 uM incubated for 48 hrs by SRB assay; assay type: functional; details: read-out: Activity
CYP1A1 [27] = biological target: T2, CYP1A1; test: Inhibition of recombinant CYP1A1 (unknown origin) assessed as residual enzyme activity using 7-ethoxyresorufin as substrate at 5 uM incubated for 15 mins by resorufin dye based spectrofluorimetry (reference value: 100%); assay type: ADME; details: recombinant CYP1A1, probe 7-ethoxyresorufin, read-out: Activity

Row | Structure (SMILES) | growth at 0.1 µM (MCF7 [1]) | growth at 1 µM (NCI-H226 [2]) | IC50 (Cytochrome P450 1A1) | GI50 (MCF7 [3]) | TGI (MCF7 [3]) | CC50 (MCF7 [3]) | growth at 0.1 µM (NCI-H226 [4]) | growth at 1 µM (MCF7 [5]) | activity at 0.25 h, 100 µM (CYP1A1 [6]) | growth at 0.1 µM (MDA-MB-435 [7]) | GI50 (MDA-MB-468 [8]) | TGI (MDA-MB-468 [8]) | CC50 (MDA-MB-468 [8]) | GI50 (MDA-MB-435 [9]) | LC50 (MDA-MB-435 [9]) | TGI (MDA-MB-435 [9]) | GI50 (NCI-H226 [10]) | LC50 (concentration killing 50% of cells) (NCI-H226 [10]) | TGI (NCI-H226 [10]) | growth at 10 µM (MCF7 [11]) | other results
1 | Cc1cc(C)n(C(=O)CCn2nc(C)c(Cl)c2C)n1 | 85.9% | 77.6% | 10 µM | 54.8 µM | > 100 µM | > 100 µM | 80.4% | 78.7% | 35.1% | 100% | > 100 µM | > 100 µM | > 100 µM | > 100 µM | > 100 µM | > 100 µM | > 100 µM | > 100 µM | > 100 µM | 74% | activity at 0.25 h, 1 µM (CYP1A1 [12]): 52.9%; growth at 10 µM (NCI-H226 [13]): 71.4%; growth at 100 µM (MCF7 [14]): 22.9%; activity at 0.25 h, 0.01 µM (CYP1A1 [15]): 79.9%; growth at 100 µM (NCI-H226 [16]): 55.6%; activity at 0.25 h, 0.1 µM (CYP1A1 [17]): 62.2%; growth at 10 µM (MDA-MB-468 [18]): 97.7%; growth at 1 µM (MDA-MB-435 [19]): 100%; activity at 0.25 h, 10 µM (CYP1A1 [20]): 50.6%; growth at 100 µM (MDA-MB-468 [21]): 68.3%; growth at 10 µM (MDA-MB-435 [22]): 100%; growth at 0.1 µM (MDA-MB-468 [23]): 100%; activity at 0.25 h, 50 µM (CYP1A1 [24]): 36.4%; growth at 1 µM (MDA-MB-468 [25]): 100%; growth at 100 µM (MDA-MB-435 [26]): 84.9%
2 | Nc1cc(-c2cc3cc(F)ccc3[nH]2)ccc1F | 68.2% | 83.2% | 0.3 µM | 69.5 µM | > 100 µM | > 100 µM | 97.7% | 63.9% | 17.5% | 29.5% | 36.5 µM | 84.7 µM | > 100 µM | < 0.1 µM | > 100 µM | > 100 µM | 62.3 µM | > 100 µM | > 100 µM | 55% | activity at 0.25 h, 5 µM (CYP1A1 [27]): 22.4%; activity at 0.25 h, 1 µM (CYP1A1 [12]): 39.8%; growth at 10 µM (NCI-H226 [13]): 63%; growth at 100 µM (MCF7 [14]): 44.5%; activity at 0.25 h, 0.01 µM (CYP1A1 [15]): 76.5%; growth at 100 µM (NCI-H226 [16]): 30.2%; activity at 0.25 h, 0.1 µM (CYP1A1 [17]): 60.9%; growth at 10 µM (MDA-MB-468 [18]): 50%; growth at 1 µM (MDA-MB-435 [19]): 21.5%; growth at 100 µM (MDA-MB-468 [21]): -14.4%; growth at 10 µM (MDA-MB-435 [22]): 17.7%; growth at 0.1 µM (MDA-MB-468 [23]): 100%; activity at 0.25 h, 50 µM (CYP1A1 [24]): 18.3%; growth at 1 µM (MDA-MB-468 [25]): 96.4%; growth at 100 µM (MDA-MB-435 [26]): 14.9%

From ChEMBL document CHEMBL5257023, “Identification of leads for antiproliferative activity on MDA-MB-435 human breast cancer cells through pharmacophore and CYP1A1-mediated metabolism” (Eur J Med Chem, 2016)
